How the values were obtained:
sedge, umbrella = test: Test B flooded paddy test; format: in vivo, Cyperus difformis; conditions: 500 g ai/ha, Flood; scale of 0 to 100 where 0 is no effect and 100 is complete control
In short: (§1)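 Scoring: visual, compared with untreated controls, 0 = no effect through 100 = complete control, taken 13 to 15 days after treatment in the greenhouse. Compounds had been added to paddy water over soil flooded 3 cm deep at the plants' 2-leaf stage.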

ducksalad = test: Test B flooded paddy test; format: in vivo, Heteranthera limosa; conditions: 500 g ai/ha, Flood; scale of 0 to 100 where 0 is no effect and 100 is complete control
In short: as §1

barnyardgrass [1] = test: Test B flooded paddy test; format: in vivo, Echinochloa crus-galli; conditions: 500 g ai/ha, Flood; scale of 0 to 100 where 0 is no effect and 100 is complete control
In short: as §1

ryegrass, Italian = test: Test C pre-/postemergence herbicide test; format: in vivo, Lolium multiflorum
In short: (§2)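 Greenhouse pots; formulation = non-phytotoxic solvent mix + surfactant. PRE onto seeds in loam:sand; POST at 1–4 leaves (2–18 cm) in peat moss/vermiculite medium. Read-out: visual % control vs untreated, day 13–15.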

wheat (winter wheat) = test: Test C pre-/postemergence herbicide test; format: in vivo, Triticum aestivum
In short: as §2

galium = test: Test C pre-/postemergence herbicide test; format: in vivo, Galium aparine; conditions: Preemergence
In short: as §2

corn = test: Test C pre-/postemergence herbicide test; format: in vivo, Zea mays
In short: as §2

lambsquarters = test: Test C pre-/postemergence herbicide test; format: in vivo, Chenopodium album
In short: as §2

morningglory = test: Test C pre-/postemergence herbicide test; format: in vivo, Ipomoea coccinea
In short: as §2

pigweed = test: Test C pre-/postemergence herbicide test; format: in vivo, Amaranthus retroflexus
In short: as §2

ragweed = test: Test C pre-/postemergence herbicide test; format: in vivo, Ambrosia elatior
In short: as §2

soybean = test: Test C pre-/postemergence herbicide test; format: in vivo, Glycine max
In short: as §2

barnyardgrass [2] = test: Test C pre-/postemergence herbicide test; format: in vivo, Echinochloa crus-galli
In short: as §2

waterhemp = test: Test C pre-/postemergence herbicide test; format: in vivo, Amaranthus rudis
In short: as §2

oat, wild = test: Test C pre-/postemergence herbicide test; format: in vivo, Avena fatua; conditions: Postemergence
In short: as §2

[3] = Postemergence, 16 g ai/ha, scale 0 to 100 (0 no effect, 100 complete control)
[4] = Postemergence, 31 g ai/ha, scale 0 to 100 (0 no effect, 100 complete control)
[5] = Postemergence, 62 g ai/ha, scale 0 (no effect) to 100 (complete control)
[6] = Postemergence, 125 g ai/ha, scale 0 to 100 (0 no effect, 100 complete control)
[7] = Preemergence, 31 g ai/ha, scale 0 to 100, 0 is no effect and 100 is complete control
[8] = Preemergence, 62 g ai/ha, scale 0 to 100 (0 no effect, 100 complete control)
[9] = Preemergence, 125 g ai/ha, scale 0 to 100 (0 no effect, 100 complete control)
[10] = Preemergence, 16 g ai/ha, scale 0 to 100
[11] = 125 g ai/ha, scale 0 to 100 (0 no effect, 100 complete control)

CN1CC(c2ccc(C(F)(F)F)cc2)C(C(=O)Nc2ccccc2F)C1=O (stereo not drawn) [Compound 304]
Plant response rating, Sedge, Umbrella (sedge, umbrella): 0 | Plant response rating, Ducksalad (ducksalad): 100 | Plant response rating, Barnyardgrass (barnyardgrass [1]): 80 | Plant response rating, Ryegrass, Italian (ryegrass, Italian; [3]): 0 | Plant response rating, Ryegrass, Italian (ryegrass, Italian; [4]): 0 | Plant response rating, Ryegrass, Italian (ryegrass, Italian; [5]): 5 | Plant response rating, Ryegrass, Italian (ryegrass, Italian; [6]): 0 | Ryegrass, Italian plant response rating (ryegrass, Italian; [7]): 30 | Ryegrass, Italian plant response rating (ryegrass, Italian; [8]): 75 | Plant response rating, Ryegrass, Italian (ryegrass, Italian; [9]): 40 | Plant response rating, Ryegrass, Italian (ryegrass, Italian; [10]): 10 | Plant response rating, Wheat (wheat (winter wheat); [3]): 0 | Plant response rating, Wheat (wheat (winter wheat); [4]): 0 | Plant response rating, Wheat (wheat (winter wheat); [5]): 0 | Plant response rating, Wheat (wheat (winter wheat); [6]): 0 | Wheat plant response rating (wheat (winter wheat); [7]): 40 | Wheat plant response rating (wheat (winter wheat); [8]): 50 | Plant response rating, Wheat (wheat (winter wheat); [10]): 5 | Galium plant response rating (galium; 31 g ai/ha, scale 0 to 100, 0 is no effect and 100 is complete control): 85 | Galium plant response rating (galium; 62 g ai/ha, scale 0 to 100 (0 no effect, 100 complete control)): 95 | Plant response rating, Galium (galium; [11]): 85 | Plant response rating, Galium (galium; 16 g ai/ha, scale 0 to 100): 100 | Plant response rating, Corn (corn; [3]): 0 | Plant response rating, Corn (corn; [4]): 0 | Plant response rating, Corn (corn; [5]): 0 | Plant response rating, Corn (corn; [6]): 5 | Corn plant response rating (corn; [7]): 0 | Corn plant response rating (corn; [8]): 40 | Plant response rating, Corn (corn; [9]): 65 | Plant response rating, Corn (corn; [10]): 0 | Plant response rating, Lambsquarters (lambsquarters; [3]): 65 | Plant response rating, Lambsquarters (lambsquarters; [4]): 35 | Plant response rating, Lambsquarters (lambsquarters; [5]): 75 | Plant response rating, Lambsquarters (lambsquarters; [6]): 70 | Lambsquarters plant response rating (lambsquarters; [7]): 65 | Lambsquarters plant response rating (lambsquarters; [8]): 70 | Plant response rating, Lambsquarters (lambsquarters; [9]): 80 | Plant response rating, Lambsquarters (lambsquarters; [10]): 30 | Plant response rating, Morningglory (morningglory; [3]): 20 | Plant response rating, Morningglory (morningglory; [4]): 50 | Plant response rating, Morningglory (morningglory; [5]): 20 | Plant response rating, Morningglory (morningglory; [6]): 45 | Morningglory plant response rating (morningglory; [7]): 5 | Morningglory plant response rating (morningglory; [8]): 50 | Plant response rating, Morningglory (morningglory; [9]): 40 | Plant response rating, Morningglory (morningglory; [10]): 0 | Plant response rating, Pigweed (pigweed; [3]): 25 | Plant response rating, Pigweed (pigweed; [4]): 35 | Plant response rating, Pigweed (pigweed; [5]): 55 | Plant response rating, Pigweed (pigweed; [6]): 55 | Pigweed plant response rating (pigweed; [7]): 55 | Pigweed plant response rating (pigweed; [8]): 75 | Plant response rating, Pigweed (pigweed; [9]): 85 | Plant response rating, Pigweed (pigweed; [10]): 40 | Plant response rating, Ragweed (ragweed; [3]): 0 | Plant response rating, Ragweed (ragweed; [4]): 0 | Plant response rating, Ragweed (ragweed; [5]): 0 | Plant response rating, Ragweed (ragweed; [6]): 35 | Ragweed plant response rating (ragweed; [7]): 60 | Ragweed plant response rating (ragweed; [8]): 60 | Plant response rating, Ragweed (ragweed; [9]): 80 | Plant response rating, Ragweed (ragweed; [10]): 25 | Plant response rating, Soybean (soybean; [3]): 0 | Plant response rating, Soybean (soybean; [4]): 0 | Plant response rating, Soybean (soybean; [5]): 5 | Plant response rating, Soybean (soybean; [6]): 10 | Soybean plant response rating (soybean; [7]): 0 | Soybean plant response rating (soybean; [8]): 0 | Plant response rating, Soybean (soybean; [9]): 0 | Plant response rating, Soybean (soybean; [10]): 0 | Plant response rating, Barnyardgrass (barnyardgrass [2]; [3]): 0 | Plant response rating, Barnyardgrass (barnyardgrass [2]; [4]): 0 | Plant response rating, Barnyardgrass (barnyardgrass [2]; [5]): 0 | Plant response rating, Barnyardgrass (barnyardgrass [2]; [6]): 40 | Barnyardgrass plant response rating (barnyardgrass [2]; [7]): 85 | Barnyardgrass plant response rating (barnyardgrass [2]; [8]): 90 | Plant response rating, Barnyardgrass (barnyardgrass [2]; [9]): 95 | Plant response rating, Barnyardgrass (barnyardgrass [2]; [10]): 85 | Plant response rating, Waterhemp (waterhemp; [3]): 40 | Plant response rating, Waterhemp (waterhemp; [4]): 50 | Plant response rating, Waterhemp (waterhemp; [5]): 65 | Plant response rating, Waterhemp (waterhemp; [6]): 80 | Waterhemp plant response rating (waterhemp; [7]): 75 | Waterhemp plant response rating (waterhemp; [8]): 80 | Plant response rating, Waterhemp (waterhemp; [9]): 85 | Plant response rating, Waterhemp (waterhemp; [10]): 70 | Plant response rating, Oat, Wild (oat, wild; 16 g ai/ha, scale 0 to 100 (0 no effect, 100 complete control)): 0 | Plant response rating, Oat, Wild (oat, wild; 31 g ai/ha, scale 0 to 100 (0 no effect, 100 complete control)): 0 | Plant response rating, Oat, Wild (oat, wild; 62 g ai/ha, scale 0 (no effect) to 100 (complete control)): 0 | Plant response rating, Oat, Wild (oat, wild; [11]): 0

From patent publication US10294202B2, “Pyrrolidinones as herbicides” (FMC Corporation, priority 2013, dated 2019)
